Test results as given in US10407445B2, “Hepatitis C virus inhibitors” (ENANTA PHARMACEUTICALS, INC., priority 2013, dated 2019).

Tests used:
Type in all cases: cell-based
HCV GT 1a replicon = assay: HCV replicon assay, stable GT 1a replicon (Renilla luciferase); conditions: Hepatitis C virus, GT1A; HCV GT 1a replicon, 72 h; read-out: EC50 1a
Method: (§1) The activity of compounds was determined against HCV replicons representing genotypes (GT) 1a, 1b, 2a, and 3a. To generate stable Huh-7.5-based cell lines, HCV replicons were engineered to express the Renilla luciferase reporter (hRluc) fused to the neomycin phosphotransferase (Neo) gene. GT2a and GT3a HCV replicons were based on the JFH-1 subgenomic replicon (Kato et al. 2003 Gastroenterology, 125:1808-1817), in which the NS5A gene was replaced with that of strains J6 and S52 (GT2a and G3a, respectively). The activity of compounds against GT1a replicons encoding NS5A mutations (M28T, Q30R, L31M, Y93C, and Y93H) was also determined in a transient replication assay. The parental GT1a and GT2a replicons (pH/SG-Neo(L+I) and pSG-Neo-JFH1, respectively) were licensed from Apath LLC (Saint Louis, Mo.). The parental GT 1b replicon (pFKi389lucubineo_3_3′_ET) was licensed from ReBLikon GmbH (Germany). HCV replicons were constructed by standard molecular biology techniques described below. All replicon constructs were verified by restriction enzyme digestion and DNA sequencing.
pH/SG-Neo(L+I) was modified to add the firefly luciferase reporter gene and additional adaptive mutations by replacing the pH/SG-Neo(L+I) NS3-NS5A coding region with the corresponding sequence of pH77-S, creating pH/SG-lucubineo-H77S as described (Borawski J et al. 2009, J Virol 83: 10058-10074). Subsequently, the firefly luciferase-Neo cassette was replaced with the hRluc-Neo cassette. To create a unique cloning site, the NotI restriction site in NS5B was removed using QuickChange II XL Site-Directed Mutagenesis Kit (Agilent) and the following primers: NotI KO Fwd 5′-CTCAAACTCACTCCAATAGCTGCCGCTGGCCGGCTGGAC-3′(G→T mutation removing NotI site underlined) (SEQ. ID No. 1) and NotI KO Rev 5′-GTCCAGCGGGCCAGCGGCAGCTATTGGAGTGAGTTTGAG-3′(C→A mutation removing NotI site underlined) (SEQ. ID No. 2). The resulting vector, pH/SG-lucubineo-H775-NotIKO, was sequenced to confirm the NS5B gene. The hRluc-Neo cassette was PCR amplified from pF9 cytomegalovirus (CMV) hRluc-Neo Flexi(R) (Promega) using Accuprime Super Mix II (Invitrogen) and the following primers, which introduce restriction sites: […]
The amplification product was subcloned into pCR2.1-TOPO (Invitrogen). The resulting plasmid was digested with AscI and NotI, and the excised hRluc-Neo fragment was ligated using the Promega Rapid Ligation Kit (Promega) into pH/SG-lucubineo-H775-NotIKO digested with the same enzymes.
Stable HCV replicon cell lines were grown in complete media (Dulbecco's modified Eagle medium [DMEM], 2 mM L-glutamine, 0.1 mM essential amino acids, 1 mM sodium pyruvate, 10% heat inactivated fetal bovine serum) with the addition 500 μg/ml […] (G418). Huh7-lunet cells were maintained in the same medium without the addition of G418. Cells were routinely passaged at a dilution of 1:4 two times a week. The assay medium for both luciferase reporter HCV replicon and cytotoxicity assays used phenol red-free DMEM and lacked G418. For each stable replicon assay, a sixteen point half-log dilution series of compound was stamped (0.5 ul compound per well) into three replica 384-well plates, to which cells were added directly (4000 cells/well). For the transient replication assay, Huh7-lunet cells in ice-cold phosphate buffered saline (PBS) were electroporated (BioRad electroporator; 950 uF, 270V) with 10 ug purified in vitro transcribed HCV replicon RNA, followed by resuspension in complete media and plating (8000 cells/well) into compound stamped 384-well plates. Luciferase activity of compound-treated cells was measured relative to DMSO-treated cells after 72 h incubation using RENILLA-GLO™ Luciferase Assay (Promega). Cytotoxicity (CC50) in the GT1b replicon cell line was analyzed using CELL TITER-GLO™ (Promega). […]

HCV GT 3a replicon = assay: HCV replicon assay, GT2a chimeric replicon expressing NS5A from GT3a strain S52; conditions: Hepatitis C virus, 72 h, read-out: EC50 3a
Method: as §1
The plasmid pSG-hRlucNeo-JFH1 was generated from pSG-Neo-JFH1 (Kato et al. 2003, Gastroentrology 125:1808-1817). A fragment containing the JFH-1 5′ NTR—hRluc-Neo gene and two unique restriction sites (AgeI and PmeI) was synthesized (Integrated DNA Technologies, Coralville, Iowa). The resulting synthetic plasmid was digested with AgeI and PmeI and the excised fragment (5′NTR-hRluc-Neo) was ligated into pSG-Neo-JFH1 digested with the same enzymes to generate pSG-hRlucNeo-JFH1. To allow expression of heterologous NS5A sequences, an NS5A shuttle vector was generated from pSG-Neo-JFH1, in which the entire coding sequence of NS5A plus the first eight codons of NS5B were replaced with an AfeI restriction site. This was done by Infusion cloning (Clontech, Mountain View, Calif.) from two PCR products that were generated using pSG-Neo-JFH1 as a template and the following primer pairs:
Underlined sequences denote regions of overlap necessary for Infusion cloning. Purified PCR products were cloned directly into an NsiI/SnaBI digested pSG-Neo-JFH1 following the manufacturer's instructions to generate pSG-Neo-JFH1-5Ashuttle. The 2023 base pair AgeI/PmeI fragment from pSG-hRlucNeo-JFH1 was then ligated into pSG-Neo-JFH1-5Ashuttle to generate pSG-hRlucNeo-JFH1-5Ashuttle. To generate the 2a-2a-(J6) and 2a-3a-(S52) NS5A chimeric replicons, the full length NS5A sequences from GT2a strain J6 (accession AF177036) and GT3a strain S52 (accession GU814263), with the addition of the first eight codons of JFH-1 NS5B (5′-TCCATGTCATACTCCTGGACCGGG-3′), were synthesized by GeneArt (Life Technologies, Carlsbad Calif.). J6 and S52 NS5A sequences were then PCR amplified from the synthetic clones using the appropriate forward primer:
Underlined sequences denote regions of overlap with pSG-hRlucNeo-JFH1-5Ashuttle necessary for Infusion cloning. Purified PCR products were directly cloned into AfeI-digested shuttle vector by Infusion cloning following the manufacturer's instructions.
Stable HCV replicon cell lines were grown in complete media (Dulbecco's modified Eagle medium [DMEM], 2 mM L-glutamine, 0.1 mM essential amino acids, 1 mM sodium pyruvate, 10% heat inactivated fetal bovine serum) with the addition 500 μg/ml […] (G418). Huh7-lunet cells were maintained in the same medium without the addition of G418. Cells were routinely passaged at a dilution of 1:4 two times a week. The assay medium for both luciferase reporter HCV replicon and cytotoxicity assays used phenol red-free DMEM and lacked G418. For each stable replicon assay, a sixteen point half-log dilution series of compound was stamped (0.5 ul compound per well) into three replica 384-well plates, to which cells were added directly (4000 cells/well). […]

[1] = system: GT1a replicon encoding NS5A mutation Q30R; assay: Transient replication assay, GT1a replicon with NS5A mutation Q30R; conditions: Hepatitis C virus, read-out: EC50 1a Q30R

Row | Structure (SMILES) | EC50 (HCV GT 1a replicon) | EC50 (HCV GT 3a replicon) | EC50 [1]
1 | COC(=O)N[C@H](C(=O)N1C[C@]2(CCCCO2)C[C@H]1c1nc(-c2ccc(-c3ccc4c(ccc5nc([C@@H]6CCCN6C(=O)[C@@H](NC(=O)OC)C(C)C)[nH]c54)c3)cc2)c[nH]1)C(C)C [Example 2] | 0.012 nM | 1 nM | 0.03 nM
2 | COC(=O)N[C@H](C(=O)N1C[C@]2(CCCOC2)C[C@H]1c1ncc(-c2ccc(-c3ccc4c(ccc5nc([C@@H]6CC7(CC7)CN6C(=O)[C@@H](NC(=O)OC)C(C)C)[nH]c54)c3)cc2)[nH]1)C(C)C [Compound 28] | 0.011 nM | 0.5 nM | 0.06 nM
3 | COC(=O)N[C@H](C(=O)N1C[C@]2(CCCOC2)C[C@H]1c1nc2ccc3cc(-c4ccc5c(ccc6nc([C@@H]7C[C@@H]8CCCC[C@@H]8N7C(=O)[C@@H](NC(=O)OC)C(C)C)[nH]c65)c4)ccc3c2[nH]1)C(C)C [Compound 23] | 0.012 nM | 0.06 nM | 0.01 nM
4 | COC(=O)N[C@H](C(=O)N1C[C@@]2(CCCOC2)C[C@H]1c1ncc(-c2ccc(-c3ccc4c(ccc5nc([C@@H]6CCCN6C(=O)[C@@H](NC(=O)OC)C(C)C)[nH]c54)c3)cc2)[nH]1)C(C)C [Compound 27] | 0.013 nM | 297 nM | 0.06 nM
5 | COC(=O)N[C@H](C(=O)N1C[C@]2(CCCOC2)C[C@H]1c1ncc(-c2ccc3cc4cc(-c5cnc([C@@H]6C[C@@H]7CCCC[C@@H]7N6C(=O)[C@@H](NC(=O)OC)C(C)C)[nH]5)ccc4cc3c2)[nH]1)C(C)C [Compound 13] | 0.036 nM | 0.9 nM | 0.01 nM
6 | COC(=O)N[C@H](C(=O)N1C[C@]2(CCCOC2)C[C@H]1c1nc2ccc3cc(-c4ccc5c(ccc6nc([C@@H]7C[C@H]8C[C@H]8N7C(=O)[C@@H](NC(=O)OC)C(C)C)[nH]c65)c4)ccc3c2[nH]1)C(C)C [Compound 6] | 0.007 nM | 0.08 nM | 0.04 nM
7 | COC(=O)N[C@H](C(=O)N1CC2(CC2)C[C@H]1c1nc2ccc3cc(-c4ccc5c(ccc6nc([C@@H]7C[C@@]8(CCCOC8)CN7C(=O)[C@@H](NC(=O)OC)C(C)C)[nH]c65)c4)ccc3c2[nH]1)C(C)C [Compound 7] | 0.009 nM | 0.05 nM | 0.03 nM
8 | COC(=O)N[C@H](C(=O)N1C[C@]2(CCCOC2)C[C@H]1c1nc2ccc3cc(-c4ccc5c(ccc6nc([C@@H]7C[C@@]8(CCCOC8)CN7C(=O)[C@@H](NC(=O)OC)C(C)C)[nH]c65)c4)ccc3c2[nH]1)C(C)C [Compound 31] | 0.03 nM | 0.1 nM | 0.02 nM
9 | COC(=O)N[C@H](C(=O)N1[C@H](c2nc3ccc4cc(-c5ccc(-c6cnc([C@@H]7C[C@@]8(CCCOC8)CN7C(=O)[C@@H](NC(=O)OC)C7C[C@@H](C)O[C@H](C)C7)[nH]6)cc5)ccc4c3[nH]2)C[C@@H]2CCCC[C@@H]21)C(C)C (stereo in doubt) [Compound 38] | 0.008 nM | 0.07 nM | 0.002 nM
10 | COC(=O)N[C@H](C(=O)N1CCC[C@H]1c1ncc(-c2ccc(-c3ccc4c(ccc5nc([C@@H]6CCCN6C(=O)[C@@H](NC(=O)OC)C(C)C)[nH]c54)c3)cc2)[nH]1)C(C)C [Example 102] | 0.015 nM | 0.06 nM | 1 nM
11 | COC(=O)N[C@H](C(=O)N1C[C@@]2(CCOC2)C[C@H]1c1ncc(-c2ccc(-c3ccc4c(ccc5nc([C@@H]6CCCN6C(=O)[C@@H](NC(=O)OC)C(C)C)[nH]c54)c3)cc2)[nH]1)C(C)C [Compound 50] | 0.014 nM | 10 nM | 0.4 nM
12 | COC(=O)N[C@H](C(=O)N1CCC[C@H]1c1nc2ccc(C#Cc3ccc4c(ccc5nc([C@@H]6CCCN6C(=O)[C@@H](NC(=O)OC)C(C)C)[nH]c54)c3)cc2[nH]1)C(C)C [Example 103] | 0.012 nM | 0.3 nM | 3 nM
13 | COC(=O)N[C@H](C(=O)N1C[C@]2(CCCOC2)C[C@H]1c1ncc(-c2ccc(-c3ccc(-c4cnc([C@@H]5C[C@@H]6CCC[C@@H]6N5C(=O)[C@@H](NC(=O)OC)C(C)C)[nH]4)cc3)cc2)[nH]1)C(C)C [Compound 37] | 0.008 nM | 3 nM | 0.02 nM
14 | COC(=O)N[C@H](C(=O)N1C[C@]2(CCCOC2)C[C@H]1c1ncc(-c2ccc(-c3ccc4c(ccc5nc([C@@H]6CCCN6C(=O)[C@@H](NC(=O)OC)C(C)C)[nH]c54)c3)cc2)[nH]1)C(C)C [Compound 47] | 0.015 nM | 0.08 nM | 0.1 nM
15 | COC(=O)N[C@H](C(=O)N1CCC[C@H]1c1ncc(-c2ccc(-c3ccc4c(ccc5nc([C@@H]6C[C@@]7(CCCOC7)CN6C(=O)[C@@H](NC(=O)OC)C(C)C)[nH]c54)c3)cc2)[nH]1)C(C)C [Compound 44] | 0.01 nM | 0.06 nM | 0.1 nM
16 | COC(=O)N[C@H](C(=O)N1C[C@]2(CCCOC2)C[C@H]1c1ncc(-c2ccc(-c3ccc4c(ccc5nc([C@@H]6C[C@@H]7CCC[C@@H]7N6C(=O)[C@@H](NC(=O)OC)C(C)C)[nH]c54)c3)cc2)[nH]1)C(C)C [Compound 16] | 0.009 nM | 0.8 nM | 0.02 nM
17 | COC(=O)N[C@H](C(=O)N1C[C@]2(CCCOC2)C[C@H]1c1nc2ccc3cc(-c4ccc(-c5cnc([C@@H]6C[C@@H]7CCCC[C@@H]7N6C(=O)[C@@H](NC(=O)OC)C(C)C)[nH]5)cc4)ccc3c2[nH]1)C(C)C [Compound 24] | 0.007 nM | 0.1 nM | 0.02 nM
